As usually defined, the pIC50 is −log10 of the IC50, conventionally taken in molar units. Lower therefore signals a high IC50.

For data set [1], the target named is T1, Na^+ /H^+ exchanger of rabbit erythrocytes (Oryctolagus cuniculus, UniProt P23791).
T1 construct: from tissue; host or cells: rabbit blood (erythrocytes), White New Zealand rabbits
Put plainly: Inhibition of the Na^+ /H^+ exchanger of rabbit erythrocytes (amiloride-sensitive sodium influx, flame photometry). The data set is classed as cell-based. The note with it: pH 7.4, 37° C., cholesterol-fed White New Zealand rabbits. The source says: Inhibition of the Na^+ /H^+ exchanger of rabbit erythrocytes:
White New Zealand rabbits (Ivanovas) received a standard diet containing 2% cholesterol for six weeks in order to activate Na^+ /H^+ exchange and thus to be able to determine the Na^+ influx into the erythrocytes via Na^+ /H^+ exchange by flame photometry. The blood was taken from the ear arteries and anticoagulated by 25 IU/ml potassium heparin. A portion of each sample was used for duplicate determination of the hematocrit by centrifugation. Aliquots each of 100 μl were used to measure the initial Na^+ content of the erythrocytes.
In order to determine the amiloride-sensitive sodium influx, 100 μl of each blood sample were incubated in each case in 5 ml of a hyperosmolar salt/sucrose medium (mmol/l: 140 NaCl, 3 KCl, 150 sucrose, 0.1 ouabain, 20 tris-hydroxymethylaminomethane) at pH 7.4 and 37° C. The erythrocytes were then washed three times with ice-cold MgCl2 /ouabain solution (mmol/l: 112 MgCl2, 0.1 ouabain) and hemolyzed in 2.0 ml of distilled water. The intracellular sodium content was determined by flame photometry.
The net Na^+ influx was calculated from the difference between the initial sodium levels and the sodium content of the erythrocytes after incubation. The sodium influx which can be inhibited by amiloride was found from the difference in the sodium content of the erythrocytes after incubation with and without amiloride 3×10^-4 mol/l. The compounds according to the invention were also subjected to this process.

Another data set relates to rat hearts. Conditions: isolated rat hearts; Eur. Heart J. 9 (suppl. 1): 167 (1988); cited from earlier work.
For data set [2], the system named is cardiac rhythm disturbances. The note with it: cited from earlier work.

The structures appear in SMILES notation. pIC50: −log10 of the molar value. Counter-ions that a name gives are not always drawn.

T1 sequence (P23791 whole entry): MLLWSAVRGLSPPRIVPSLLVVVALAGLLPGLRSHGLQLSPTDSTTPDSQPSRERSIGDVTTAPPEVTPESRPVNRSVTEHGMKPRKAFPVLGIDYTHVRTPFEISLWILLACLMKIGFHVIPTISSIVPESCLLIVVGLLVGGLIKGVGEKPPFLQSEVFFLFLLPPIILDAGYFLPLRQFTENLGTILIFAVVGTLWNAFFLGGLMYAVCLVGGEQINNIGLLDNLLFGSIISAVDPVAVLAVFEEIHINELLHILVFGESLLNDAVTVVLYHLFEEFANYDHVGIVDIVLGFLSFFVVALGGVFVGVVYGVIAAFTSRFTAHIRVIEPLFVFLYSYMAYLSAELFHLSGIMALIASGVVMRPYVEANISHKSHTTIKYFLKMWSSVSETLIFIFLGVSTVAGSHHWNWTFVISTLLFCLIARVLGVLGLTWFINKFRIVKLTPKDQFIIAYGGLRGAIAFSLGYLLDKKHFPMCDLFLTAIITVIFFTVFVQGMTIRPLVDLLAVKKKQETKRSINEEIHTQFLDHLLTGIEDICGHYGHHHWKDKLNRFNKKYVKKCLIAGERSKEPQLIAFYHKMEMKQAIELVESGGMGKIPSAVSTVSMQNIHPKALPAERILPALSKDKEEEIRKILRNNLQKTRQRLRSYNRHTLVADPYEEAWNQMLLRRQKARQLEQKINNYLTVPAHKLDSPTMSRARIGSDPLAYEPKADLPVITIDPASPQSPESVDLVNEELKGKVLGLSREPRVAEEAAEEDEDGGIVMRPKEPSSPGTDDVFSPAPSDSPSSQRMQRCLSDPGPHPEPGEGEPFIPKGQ

In the case of `NC(N)=NC(=O)C=Cc1cccc(C(F)(F)F)c1` [Example 1, Meta-Trifluoromethylcinnamic Acid Guanidide Hydrochloride], in data set [1], the negative logarithm of the IC50 (pIC50) was over 6.00.
Still for that read-out and setting: the same measure for `C/C(=C\c1cccc(C(F)(F)F)c1)C(=O)N=C(N)N` [Example 3, Trans-2-Methyl-3-(3-Trifluoromethylphenyl)-Acrylic Acid Guanidide]: over 6.00; for `C/C(C(=O)N=C(N)N)=C(/C)c1cc(C(F)(F)F)ccc1F` [Example 10, Trans-2,3-Dimethyl-3-[2-Fluoro-5-Trifluoromethyl-Phenyl]-Acrylic Acid Guanidide]: over 6.00.
`N=C(N)NC(=O)c1nc(Cl)c(N)nc1N` [amiloride]: the “suppression of artificially induced ventricular fibrillation” value with rat hearts is on record as “completely to suppress artificially induced ventricular fibrillation”. Moreover, the antiarrhythmic effect entry in data set [2] (Circulation 79, 1257-63 (1989)) is listed as “only weak”. Moreover, the accompanying side effects result in data set [2] (in vivo) was “blood pressure-lowering and saluretic effect”.
As to `CCN(c1nc(N)c(C(=O)NC(=N)N)nc1Cl)C(C)C` [ethylisopropylamiloride], the “suppression of artificially induced ventricular fibrillation” value with rat hearts was “Even more potent than amiloride”.

Values taken from patent publication US6025349A, “Phenyl.-substituted alkenylcarboguanidides carrying perfluoroalkyl groups, a process for their preparation, their use as a medicament or diagnostic agent, and also a medicament containing them” (priority 1994, dated 2000).
